# According to patent US20250230193A1, “CYCLIC COMPOUND HAVING SELECTIVE KRAS INHIBITORY EFFECT ON HRAS AND NRAS” (CHUGAI SEIYAKU KABUSHIKI KAISHA, priority 2022, published 2025):
# How the values were obtained:
# [1] = molecular target: GDP-bound NRAS wild-type protein (Homo sapiens, UniProt P01111); experiment: Binding to NRAS by surface plasmon resonance (SPR), Single Cycle Kinetics; conditions: KD ratio NRAS/KRAS, SPR
# [2] = molecular target: GDP-bound HRAS wild-type protein (Homo sapiens, UniProt P01112); experiment: Binding to HRAS by surface plasmon resonance (SPR), Single Cycle Kinetics; conditions: KD ratio HRAS/KRAS, SPR
# Sequence of GDP-bound HRAS wild-type protein (P01112 whole entry): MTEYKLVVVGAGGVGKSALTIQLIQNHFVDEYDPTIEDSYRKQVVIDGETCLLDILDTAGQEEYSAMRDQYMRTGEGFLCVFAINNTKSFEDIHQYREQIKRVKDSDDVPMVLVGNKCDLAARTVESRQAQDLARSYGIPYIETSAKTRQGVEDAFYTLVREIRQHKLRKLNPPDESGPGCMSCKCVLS
# Sequence of GDP-bound NRAS wild-type protein (P01111 whole entry): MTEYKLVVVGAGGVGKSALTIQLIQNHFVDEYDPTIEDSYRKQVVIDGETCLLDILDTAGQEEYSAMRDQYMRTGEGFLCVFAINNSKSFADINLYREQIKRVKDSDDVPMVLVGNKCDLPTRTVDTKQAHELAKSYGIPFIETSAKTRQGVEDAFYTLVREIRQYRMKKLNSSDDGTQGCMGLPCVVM
SMILES,NRAS/KRAS (ratio of KD value with respect to GDP-bound NRAS wild-type protein to KD value with respect to KRAS) [1],HRAS/KRAS (ratio of KD value with respect to GDP-bound HRAS wild-type protein to KD value with respect to KRAS) [2]
CCO[C@@H]1C[C@H]2C(=O)NC3(CCC3)C(=O)N(C)[C@@H](C3CCCC3)C(=O)N(C)[C@H](C(=O)N(C)C)CC(=O)N(C)[C@@H](CC(C)C)C(=O)N[C@@H]([C@@H](C)CC)C(=O)N(C)CC(=O)N(C)[C@H]3CCCCCN(C3=O)[C@@H](Cc3ccc(C(F)(F)F)cc3)C(=O)N(C)CC(=O)N[C@@H](CCc3cc(F)c(C(F)(F)F)c(F)c3)C(=O)N2C1 [PP0469],B (a compound having 3 or more and less than 10 is denoted as B),B (a compound having 3 or more and less than 10 is denoted as B)
CC[C@H](C)[C@@H]1NC(=O)[C@H](C)N(C)C(=O)C[C@@H](C(=O)N(C)C)N(C)C(=O)[C@H](C2CCCC2)N(C)C(=O)C2(CCC2)NC(=O)[C@@H]2CCCN2C(=O)[C@H](CCc2cc(F)c(C(F)(F)F)c(F)c2)NC(=O)CN(C)C(=O)[C@H](Cc2ccc(C(F)(F)F)cc2)N2CCCCC[C@@H](C2=O)N(C)C(=O)CN(C)C1=O [PP0470],B (a compound having 3 or more and less than 10 is denoted as B),B (a compound having 3 or more and less than 10 is denoted as B)
CC[C@H](C)[C@@H]1NC(=O)[C@H](C)N(C)C(=O)C[C@@H](C(=O)N2CCOCC2)N(C)C(=O)[C@H](C2CCCC2)N(C)C(=O)C2(CCC2)NC(=O)[C@@H]2CC(F)(F)CN2C(=O)[C@H](CCc2cc(F)c(C(F)(F)F)c(F)c2)NC(=O)CN(C)C(=O)[C@H](Cc2ccc(C(F)(F)F)cc2)N2CCCCC[C@@H](C2=O)N(C)C(=O)CN(C)C1=O [PP0471],B (a compound having 3 or more and less than 10 is denoted as B),B (a compound having 3 or more and less than 10 is denoted as B)
CC[C@H](C)[C@@H]1NC(=O)[C@H](C)N(C)C(=O)C[C@@H](C(=O)N(C)C)N(C)C(=O)[C@H](C2CCCC2)N(C)C(=O)C2(CCCC2)NC(=O)[C@@H]2CC(F)(F)CN2C(=O)[C@H](CCc2cc(F)c(C(F)(F)F)c(F)c2)NC(=O)CN(C)C(=O)[C@H](Cc2ccc(C(F)(F)F)cc2)N2CCCCC[C@@H](C2=O)N(C)C(=O)CN(C)C1=O [PP0472],B (a compound having 3 or more and less than 10 is denoted as B),B (a compound having 3 or more and less than 10 is denoted as B)
CC[C@H](C)[C@@H]1NC(=O)[C@H](C)N(C)C(=O)C[C@@H](C(=O)N(C)C)N(C)C(=O)[C@H](C2CCCC2)N(C)C(=O)C2(CCC2)NC(=O)[C@@H]2CC(F)(F)CN2C(=O)[C@H](CCc2cc(F)c(C(F)(F)F)c(F)c2)NC(=O)CN(C)C(=O)[C@H](Cc2ccc(C(F)(F)F)cc2)N2CCCCC[C@@H](C2=O)N(C)C(=O)CN(C)C1=O [PP0473],C (A compound having a KD ratio of 0.1 or more and less than 3 is denoted as C),C (A compound having a KD ratio of 0.1 or more and less than 3 is denoted as C)
CCO[C@@H]1C[C@H]2C(=O)NC3(CCC3)C(=O)N(C)[C@@H](C3CCCC3)C(=O)N(C)[C@H](C(=O)N3CCOCC3)CC(=O)N(C)[C@@H](C)C(=O)N[C@@H]([C@@H](C)CC)C(=O)N(C)CC(=O)N(C)[C@H]3CCCCCN(C3=O)[C@@H](Cc3ccc(C(F)(F)F)cc3)C(=O)N(C)CC(=O)N[C@@H](CCc3cc(F)c(C(F)(F)F)c(F)c3)C(=O)N2C1 [PP0474],B (a compound having 3 or more and less than 10 is denoted as B),B (a compound having 3 or more and less than 10 is denoted as B)
CCO[C@@H]1C[C@H]2C(=O)NC3(CCCC3)C(=O)N(C)[C@@H](C3CCCC3)C(=O)N(C)[C@H](C(=O)N(C)C)CC(=O)N(C)[C@@H](C)C(=O)N[C@@H]([C@@H](C)CC)C(=O)N(C)CC(=O)N(C)[C@H]3CCCCCN(C3=O)[C@@H](Cc3ccc(C(F)(F)F)cc3)C(=O)N(C)CC(=O)N[C@@H](CCc3cc(F)c(C(F)(F)F)c(F)c3)C(=O)N2C1 [PP0475],B (a compound having 3 or more and less than 10 is denoted as B),B (a compound having 3 or more and less than 10 is denoted as B)
CCO[C@@H]1C[C@H]2C(=O)NC3(CCC3)C(=O)N(C)[C@@H](C3CCCC3)C(=O)N(C)[C@H](C(=O)N(C)C)CC(=O)N(C)[C@@H](C)C(=O)N[C@@H]([C@@H](C)CC)C(=O)N(C)CC(=O)N(C)[C@H]3CCCCCN(C3=O)[C@@H](Cc3ccc(C(F)(F)F)cc3)C(=O)N(C)CC(=O)N[C@@H](CCc3cc(F)c(C(F)(F)F)c(F)c3)C(=O)N2C1 [PP0476],B (a compound having 3 or more and less than 10 is denoted as B),B (a compound having 3 or more and less than 10 is denoted as B)
CC[C@H](C)[C@@H]1NC(=O)[C@H](CC(C)C)N(C)C(=O)C[C@@H](C(=O)N2CCOCC2)N(CC)C(=O)[C@H](C2CCCC2)N(C)C(=O)C2(CCCC2)NC(=O)[C@@H]2CCCN2C(=O)[C@H](CCc2cc(F)c(C(F)(F)F)c(F)c2)NC(=O)CN(C)C(=O)[C@H](Cc2ccc(C(F)(F)F)cc2)N2CCCCC[C@@H](C2=O)N(C)C(=O)CN(C)C1=O [PP0477],A (a compound having 10 or more and less than 20 is denoted as A),A (a compound having 10 or more and less than 20 is denoted as A)
CC[C@H](C)[C@@H]1NC(=O)[C@H](CC(C)C)N(C)C(=O)C[C@@H](C(=O)N2CCOCC2)NC(=O)[C@H](C2CCCC2)N(C)C(=O)C2(CCCC2)NC(=O)[C@@H]2CCCN2C(=O)[C@H](CCc2cc(F)c(C(F)(F)F)c(F)c2)NC(=O)CN(C)C(=O)[C@H](Cc2ccc(C(F)(F)F)cc2)N2CCCCC[C@@H](C2=O)N(C)C(=O)CN(C)C1=O [PP0479],B (a compound having 3 or more and less than 10 is denoted as B),B (a compound having 3 or more and less than 10 is denoted as B)
CC[C@H](C)[C@@H]1NC(=O)[C@H](CC(C)C)N(C)C(=O)C[C@@H](C(=O)N2CCOCC2)N(C)C(=O)[C@H](C2CCCC2)N(C)C(=O)C2(CCCC2)NC(=O)[C@@H]2CCCN2C(=O)[C@H](CCc2cc(F)c(C(F)(F)F)c(F)c2)NC(=O)CN(C)C(=O)[C@H](Cc2ccc(C(F)(F)F)cc2)N2CCCCC[C@@H](C2=O)N(C)C(=O)[C@H](C)NC1=O [PP0481],B (a compound having 3 or more and less than 10 is denoted as B),B (a compound having 3 or more and less than 10 is denoted as B)
CC[C@H](C)[C@@H]1NC(=O)[C@H](CC(C)C)N(C)C(=O)C[C@@H](C(=O)N2CCOCC2)N(C)C(=O)[C@H](C2CCCC2)N(C)C(=O)C2(CCCC2)NC(=O)[C@@H]2CCCN2C(=O)[C@H](CCc2cc(F)c(C(F)(F)F)c(F)c2)NC(=O)CN(C)C(=O)[C@H](Cc2ccc(C(F)(F)F)cc2)N2CCCCC[C@@H](C2=O)N(C)C(=O)CN(CC)C1=O [PP0483],B (a compound having 3 or more and less than 10 is denoted as B),B (a compound having 3 or more and less than 10 is denoted as B)
CC[C@H](C)[C@@H]1NC(=O)[C@H](CC(C)C)N(C)C(=O)C[C@@H](C(=O)N2CCOCC2)N(C)C(=O)[C@H](C2CCCC2)N(C)C(=O)C2(CCCC2)NC(=O)[C@@H]2CCCN2C(=O)[C@H](CCc2cc(F)c(C(F)(F)F)c(F)c2)NC(=O)CN(C)C(=O)[C@H](Cc2ccc(C(F)(F)F)cc2)N2CCCCC[C@@H](C2=O)N(C)C(=O)[C@@H]2CCN2C1=O [PP0484],A (a compound having 10 or more and less than 20 is denoted as A),B (a compound having 3 or more and less than 10 is denoted as B)
CC[C@H](C)[C@@H]1NC(=O)[C@H](CC(C)C)N(C)C(=O)C[C@@H](C(=O)N2CCOCC2)N(C)C(=O)[C@H](C2CCCC2)N(C)C(=O)C2(CCCC2)NC(=O)[C@@H]2CCCN2C(=O)[C@H](CCc2cc(F)c(C(F)(F)F)c(F)c2)NC(=O)CN(C)C(=O)[C@H](Cc2ccc(C(F)(F)F)cc2)N2CCCCC[C@@H](C2=O)N(C)C(=O)[C@@H]2CCCN2C1=O [PP0485],A (a compound having 10 or more and less than 20 is denoted as A),B (a compound having 3 or more and less than 10 is denoted as B)
CC[C@H](C)[C@@H]1NC(=O)[C@H](C)N(C)C(=O)C[C@@H](C(=O)N2CCOCC2)N(C)C(=O)[C@H](C2CCCC2)N(C)C(=O)C2(CCCC2)NC(=O)[C@@H]2CCCN2C(=O)[C@H](CCc2cc(F)c(C(F)(F)F)c(F)c2)NC(=O)CN(C)C(=O)[C@H](Cc2ccc(C(F)(F)F)cc2)N2CCCCC[C@@H](C2=O)N(C)C(=O)CN(C)C1=O [PP0487],B (a compound having 3 or more and less than 10 is denoted as B),B (a compound having 3 or more and less than 10 is denoted as B)
